Columns and labels:
IDH1 R132H enzyme = IDH1 R132H enzyme (Homo sapiens (Human), UniProt O75874, R132H); assay: Mutant IDH1 R132H biochemical assay; details: NADPH consumption, luminescent readout; 1.5 nM enzyme, 1 μM NADPH, 250 μM α-KG, 30 minutes, 32° C.
Protocol: NADPH consumption was measured by luminescent readout. […] The final DMSO concentration was 2.4%. […] Luminescence was measured on a luminescent reader (10 seconds measuring time, 1 second integration period, 30% sensitivity). The decrease in luminescence is proportional to mIDH1 activity. IC50 values are determined by interpolation from plots of relative luminescence versus inhibitor concentration.

[1] = biological target: mutated isocitrate dehydrogenase (mIDH) protein, LN229 R132H cells (Homo sapiens (Human), UniProt O75874, R132H); assay: Mutant IDH1 cellular assay (2-HG in medium of LN229 R132H cells); assay type: cell-based; details: 2-HG levels in medium, 24 hours
Chain of mutated isocitrate dehydrogenase (mIDH) protein, LN229 R132H cells (O75874 whole entry R132H): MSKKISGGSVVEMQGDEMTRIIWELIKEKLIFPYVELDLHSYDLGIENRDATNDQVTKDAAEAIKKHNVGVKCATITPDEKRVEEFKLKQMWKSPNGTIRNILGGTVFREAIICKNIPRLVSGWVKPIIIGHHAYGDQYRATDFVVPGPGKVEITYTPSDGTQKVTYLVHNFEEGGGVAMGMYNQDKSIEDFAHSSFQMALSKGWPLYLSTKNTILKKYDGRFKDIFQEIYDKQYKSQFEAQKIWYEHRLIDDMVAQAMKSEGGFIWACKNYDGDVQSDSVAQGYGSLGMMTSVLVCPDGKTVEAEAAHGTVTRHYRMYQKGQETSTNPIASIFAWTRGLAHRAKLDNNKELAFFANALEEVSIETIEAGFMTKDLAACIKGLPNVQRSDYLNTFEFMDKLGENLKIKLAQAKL
Protocol: Mutant IDH1 Cellular Assay
They were harvested by trypsin and seeded into 96-well plates. Cells were incubated overnight at 37° C. in 5% CO2. The next day test compounds were added to each cell well. The final concentration of DMSO was 0.1% and DMSO controls were included. The plates were then placed in an incubator for 24 hours.
2-HG was measured according to Balss et al. (Acta Neuropathol (2012) 124: 883-891). Briefly, HClO4 was added to each well and the plates were centrifuged. Aliquots are removed and incubated with hydroxyglutarate dehydrogenase (HGDH), diaphorase, NAD+, and resazurin. The conversion of resazurin to resorufin was detected by fluorescence spectroscopy at Ex 540 nm Em 600 nm. The increase in fluorescence is proportional to 2-HG production. IC50 values are determined by interpolation from plots of relative fluorescence vs inhibitor concentration.

Chain of IDH1 R132H enzyme (O75874 whole entry R132H): as above

Structure (SMILES)	IC50 (IDH1 R132H enzyme) [nM]	IC50 [1] [nM]
COC(=O)c1cc2nc(Cc3ccc(OC(F)(F)F)cc3)n([C@H]3C[C@@H](C)CC(C)(C)C3)c2cc1C (racemic) [Example 2-18, (±) methyl 6-methyl-2-[4-(trifluoromethoxy)benzyl]-1-[(cis)-3,3,5-trimethylcyclohexyl]-1H-benzimidazole-5-carboxylate]	150	1800
Cc1cc2c(cc1C(=O)O)nc(Cc1ccc(OC(F)(F)F)cc1)n2[C@@H]1C[C@H](C)CC(C)(C)C1 (stereo in doubt) [Example 2-44-1]	20	400
COc1cc2c(cc1C(=O)O)nc(Cc1ccc(OC(F)(F)F)cc1)n2[C@@H]1C[C@H](C)CC(C)(C)C1 (single isomer, unassigned) [Example 2-45-1]	300	1600
COc1cc2c(cc1CCC(=O)O)nc(Cc1ccc(OC(F)(F)F)cc1)n2[C@@H]1C[C@H](C)CC(C)(C)C1 (single isomer, unassigned) [Example 2-50-1]	200	3600
CC(C)c1ccc(Cc2nc3cc(C(=O)O)ccc3n2[C@@H]2C[C@H](C)CC(C)(C)C2)cc1 (stereo in doubt) [Example 2-33]	50	350
C[C@H]1C[C@@H](n2c(Cc3ccc(C(F)(F)F)cc3)nc3cc(C(=O)O)ccc32)CC(C)(C)C1 (stereo in doubt) [Example 2-34]	120	1900
CC1(C)CC(n2c(Cc3ccc(OC(F)(F)F)cc3)nc3c(F)c(CCC(=O)O)ccc32)CC(C)(C)C1 [Example 2-52, 3-{4-fluoro-1-(3,3,5,5-tetramethylcyclohexyl)-2-[4-(trifluoromethoxy)benzyl]-1H-benzimidazol-5-yl}Propanoic Acid]	80	1800
COc1cc2c(cc1CCC(=O)O)nc(Cc1ccc(OC(F)(F)F)cc1)n2[C@@H]1C[C@H](C)CC(C)(C)C1 (racemic) [Example 2-50]	30	210
CC(C)Oc1cc2c(cc1C(=O)O)nc(Cc1ccc(OC(F)(F)F)cc1)n2[C@@H]1C[C@H](C)CC(C)(C)C1 (stereo in doubt) [Example 2-46]	330	1500
COc1cc2c(cc1C(=O)O)nc(Cc1ccc(OC(F)(F)F)cc1)n2[C@H]1C[C@@H](C)CC(C)(C)C1 (stereo in doubt) [Example 2-45-2]	20	120
COc1cc2c(cc1C(=O)O)nc(Cc1ccc(OC(F)(F)F)cc1)n2[C@@H]1C[C@H](C)CC(C)(C)C1 (racemic) [Example 2-45]	30	160
COC(=O)c1ccc2c(c1)nc(Cc1ccc(C(C)C)cc1)n2[C@H]1C[C@@H](C)CC(C)(C)C1 (racemic) [Example 2-7, (±) methyl 2-[4-(propan-2-yl)benzyl]-1-[(cis)-3,3,5-trimethylcyclohexyl]-1H-benzimidazole-5-carboxylate]	330	3000
Cc1cc2c(cc1CCC(=O)O)nc(Cc1ccc(OC(F)(F)F)cc1)n2[C@@H]1C[C@H](C)CC(C)(C)C1 (stereo in doubt) [Example 2-49]	80	280
CC1(C)CC(n2c(Cc3ccc(OC(F)(F)F)cc3)nc3c(F)c(C(=O)O)ccc32)CC(C)(C)C1 [Example 2-48]	80	800
COC(=O)c1cc2nc(Cc3ccc(OC(F)(F)F)cc3)n([C@H]3C[C@@H](C)CC(C)(C)C3)c2cc1C (single isomer, unassigned) [Example 2-18-1, methyl 6-methyl-2-[4-(trifluoromethoxy)benzyl]-1-[(cis)-3,3,5-trimethylcyclohexyl]-1H-benzimidazole-5-carboxylate]	140	2600

Source: patent US10179123B2, “2-aryl- and 2-arylalkyl-benzimidazoles as mIDH1 inhibitors” (BAYER PHARMA AKTIENGESELLSCHAFT, priority 2015, dated 2019)
